In patent publication US20240109864A1, “SUBSTITUTED PYRAZOLYL PIPERIDINE CARBOXYLIC ACIDS” (BAYER AKTIENGESELLSCHAFT, priority 2020, published 2024):
pEC50: −log10 of the molar value. Structures can show the parent of a compound that is named as a salt.

Target: T1, recombinant guanylate cyclase reporter cell line (Rattus norvegicus, UniProt P20595)
T1 construct: expressed in transfected cells
T1 sequence (P20595 1-619): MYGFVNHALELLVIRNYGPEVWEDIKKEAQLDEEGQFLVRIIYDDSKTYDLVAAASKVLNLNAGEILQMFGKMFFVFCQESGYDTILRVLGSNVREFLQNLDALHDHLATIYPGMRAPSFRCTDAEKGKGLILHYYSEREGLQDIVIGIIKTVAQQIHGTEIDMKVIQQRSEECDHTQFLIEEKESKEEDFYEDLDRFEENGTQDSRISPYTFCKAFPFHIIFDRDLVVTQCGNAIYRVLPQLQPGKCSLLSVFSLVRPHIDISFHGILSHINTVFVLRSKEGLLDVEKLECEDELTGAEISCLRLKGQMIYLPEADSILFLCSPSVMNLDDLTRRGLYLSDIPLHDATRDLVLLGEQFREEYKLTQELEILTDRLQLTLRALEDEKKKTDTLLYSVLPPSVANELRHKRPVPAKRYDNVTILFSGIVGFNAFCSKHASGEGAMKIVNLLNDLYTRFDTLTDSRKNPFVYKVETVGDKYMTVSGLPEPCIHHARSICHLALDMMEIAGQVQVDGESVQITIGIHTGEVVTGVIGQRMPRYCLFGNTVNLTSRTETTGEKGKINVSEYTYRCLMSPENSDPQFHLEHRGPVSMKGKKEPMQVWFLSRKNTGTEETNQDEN
T1 sequence (P19686 1-690 partner): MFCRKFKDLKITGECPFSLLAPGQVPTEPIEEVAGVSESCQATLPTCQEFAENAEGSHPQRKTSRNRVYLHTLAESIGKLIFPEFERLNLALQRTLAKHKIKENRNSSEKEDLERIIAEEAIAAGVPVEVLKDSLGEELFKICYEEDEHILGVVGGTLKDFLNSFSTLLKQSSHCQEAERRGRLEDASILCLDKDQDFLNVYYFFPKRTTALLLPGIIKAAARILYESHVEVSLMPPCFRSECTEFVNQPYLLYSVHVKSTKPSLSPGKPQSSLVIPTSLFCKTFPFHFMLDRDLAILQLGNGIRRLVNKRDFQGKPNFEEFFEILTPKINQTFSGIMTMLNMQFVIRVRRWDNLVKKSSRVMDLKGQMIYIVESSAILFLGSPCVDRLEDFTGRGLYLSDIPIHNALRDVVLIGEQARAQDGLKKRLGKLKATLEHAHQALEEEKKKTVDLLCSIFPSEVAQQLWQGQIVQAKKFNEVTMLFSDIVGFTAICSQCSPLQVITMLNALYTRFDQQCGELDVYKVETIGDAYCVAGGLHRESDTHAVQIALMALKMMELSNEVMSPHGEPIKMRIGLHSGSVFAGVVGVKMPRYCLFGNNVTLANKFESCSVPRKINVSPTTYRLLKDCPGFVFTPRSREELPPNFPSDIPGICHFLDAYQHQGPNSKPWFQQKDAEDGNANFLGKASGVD
Experiment: Effect on a recombinant guanylate cyclase reporter cell line
Type: cell-based
Details: in some cases mean values from individual determinations; for MEC: MEC = minimum effective concentration; for pEC50: half maximal effective concentration
Description: The cellular activity of the compounds according to the invention was determined using a recombinant guanylate cyclase reporter cell line, as described in F. Wunder et al., Anal. Biochem. 339, 104-112 (2005).

## O=C(O)c1cnn(C2CCCN(c3cc(Cl)ccc3-c3ccc(C4CC4)nc3)C2)c1C(F)(F)F (single isomer, unassigned) [Example 79, 1-[1-[5-Chloro-2-(6-cyclopropyl-3-pyridyl)phenyl]-3-piperidyl]-5-(trifluoromethyl)pyrazole-4-carboxylic acid]
  MEC: 1.0 nM
  pEC50: 8.44

## CCNC(=O)N1CCN(c2ccc(-c3ccc(Cl)cc3N3CCCC(n4ncc(C(=O)O)c4C(F)(F)F)C3)cc2)CC1 (single isomer, unassigned) [Example 66, 1-[1-[5-Chloro-2-[4-[4-(ethylcarbamoyl)piperazin-1-yl]phenyl]phenyl]-3-piperidyl]-5-(trifluoromethyl)pyrazole-4-carboxylic acid]
  MEC: 3.0 nM
  pEC50: 7.55

## O=C(O)c1cnn(C2CCCN(c3cc(Cl)ccc3-c3ccc(N4CCN(CCOC(F)(F)F)CC4)cc3)C2)c1C(F)(F)F (single isomer, unassigned) [Example 35, 1-[1-[5-Chloro-2-[4-[4-[2-(trifluoromethoxy)ethyl]piperazin-1-yl]phenyl]phenyl]-3-piperidyl]-5-(trifluoromethyl)pyrazole-4-carboxylic acid hydrochloride]
  MEC: 3.0 nM
  pEC50: 7.76

## O=C(O)c1cnn(C2CCCN(c3cc(Cl)ccc3-c3ccc(N4CCN(CC5CC(F)(F)C5)CC4)cc3)C2)c1C(F)(F)F (single isomer, unassigned) [Example 21, 1-[1-[5-Chloro-2-[4-[4-[(3,3-difluorocyclobutyl)methyl]piperazin-1-yl]phenyl]phenyl]-3-piperidyl]-5-(trifluoromethyl)pyrazole-4-carboxylic acid hydrochloride]
hydrochloride
  MEC: 3.0 nM
  pEC50: 7.57

## CCC(=O)N1CCC(c2ccc(-c3ccc(Cl)cc3N3CCCC(n4ncc(C(=O)O)c4C(F)(F)F)C3)cc2)CC1 (single isomer, unassigned) [Example 82, 1-[1-[5-Chloro-2-[4-(1-propanoyl-4-piperidyl)phenyl]phenyl]-3-piperidyl]-5-(trifluoromethyl)pyrazole-4-carboxylic acid hydrochloride]
  MEC: 0.3 nM
  pEC50: 8.41

## O=C(O)c1cnn(C2CCCN(c3cc(Cl)ccc3-c3ccc(N4CCN(CC(F)(F)F)CC4)nc3)C2)c1C(F)(F)F (single isomer, unassigned) [Example 74, 1-[1-[5-Chloro-2-[6-[4-(2,2,2-trifluoroethyl)piperazin-1-yl]-3-pyridyl]phenyl]-3-piperidyl]-5-(trifluoromethyl)pyrazole-4-carboxylic acid hydrochloride]
hydrochloride
  MEC: 1.0 nM
  pEC50: 7.98

## CCC(=O)N1CCC(c2ccc(-c3ccc(Cl)cc3N3CCCC(n4ncc(C(=O)O)c4C(F)(F)F)C3)cc2)CC1 (single isomer, unassigned) [Example 83, 1-[1-[5-Chloro-2-[4-(1-propanoyl-4-piperidyl)phenyl]phenyl]-3-piperidyl]-5-(trifluoromethyl)pyrazole-4-carboxylic acid hydrochloride]
  MEC: 0.3 nM
  pEC50: 8.41

## O=C(O)c1cnn(C2CCCN(c3cc(Cl)ccc3-c3ccc4c(c3)CCN(CC(F)(F)F)C4)C2)c1C(F)(F)F (single isomer, unassigned) [Example 80, 1-[1-[5-Chloro-2-[2-(2,2,2-trifluoroethyl)-3,4-dihydro-1H-isoquinolin-6-yl]phenyl]-3-piperidyl]-5-(trifluoromethyl)pyrazole-4-carboxylic acid]
  MEC: 10.0 nM
  pEC50: 7.07

## CC(C)OC(=O)N1CCN(c2ccc(-c3ccc(Cl)cc3N3CCCC(n4ncc(C(=O)O)c4C(F)(F)F)C3)cc2)CC1 (single isomer, unassigned) [Example 56, 1-[1-[5-Chloro-2-[4-(4-isopropoxycarbonylpiperazin-1-yl)phenyl]phenyl]-3-piperidyl]-5-(trifluoromethyl)pyrazole-4-carboxylic acid]
  MEC: 3.0 nM
  pEC50: 7.74
